Measured values reported in patent US20090291877A1, “TREATMENTS USING CITRULLINE” (priority 2006, published 2009).

Experiments:
[1] = Plasma nitrotyrosine during 72-h intravenous infusion in ICU patients with severe sepsis/septic shock; type: in vivo, human; details: 72-h i.v. infusion, compared with placebo
Experimental: (§1) Methods: According to a placebo-controlled double-blind study design, ICU patients with severe sepsis/septic shock (<48 h; APACHE II scores between 18-41) were randomized in a group treated with intravenous 72-h L-arginine-HCl (1.2 μmol/kg·min, n=9) or isocaloric L-alanine (placebo; n=9). All patients were treated with norepinephrine in a range between […] at the start of study. Haemodynamics were recorded at 2-h intervals throughout the protocol. Blood was sampled at baseline and at 24-h intervals and analysed for plasma nitrotyrosine levels. Repeated measurements ANOVA was used; data are means±SEM.

[2] = Haemodynamics (MAP, systemic blood pressure, norepinephrine dose) during 72-h intravenous infusion in ICU patients with severe sepsis/septic shock; type: in vivo, human; details: for MAP: i.v. L-arginine-HCl 1.2 μmol/kg·min, mean ± SEM
Experimental: as §1

[3] = hemodialysis patients, pre versus post dialysis run; cited from earlier work

In the case of Cl.N=C(N)NCCC[C@H](N)C(=O)O [ARG, L-arginine-HCl], the “Plasma nitrotyrosine (oxidative effect on plasma proteins), arginine versus placebo” value ([1]; listed as Arginine) is reported as “does not enhance”, the “Plasma nitrotyrosine (oxidative effect on plasma proteins), arginine versus placebo” value ([1]; listed as arginine) is reported as “did not differ” and the “Norepinephrine dose, arginine versus placebo” value ([2]; 72-h i.v. infusion, compared with placebo) is reported as “No significant differences”. The “Systemic blood pressure, arginine versus placebo” value ([2]; 72-h i.v. infusion, compared with placebo, listed as Arginine) was “does not affect”, the “Systemic blood pressure, arginine versus placebo” value ([2]; 72-h i.v. infusion, compared with placebo, listed as arginine) was “No significant differences” and the MAP ([2]; 24 h) was 81 ± 3 mmHg. It also gave an MAP ([2]; 48 h) of 85 ± 4 mmHg, an MAP ([2]; 72 h) of 84 ± 5 mmHg and an MAP ([2]; Baseline) of 82 ± 4 mmHg. The “Decrease of level during dialysis treatment” value [3] was 36%.
